Holding throughout (assay type): cell-based
For one series, the system named is N. lactamica. On the procedure: (§1) A series of derivatives of the NI0138-51 (SEQ ID NO:12) truncation were carried out with a view to maintaining stability of the helix and/or increasing net positive charge of the peptides (Table 3). Minimum inhibitory concentrations (MICs) were determined for each derivative against a range of Gram positive and Gram negative organisms by a modified 2-fold microtitre broth dilution method (Wu and Hancock, J Biol Chem 1999; 274: 29-35) (Table 2). […] This could not have been predicted.

The next series deals with P. aeruginosa. On the procedure: as §1
Another series deals with E. coli. The procedure: as §1
Another series relates to S aureus 1195. The procedure: as §1
The subject of another series is haemolysis. Description: Haemolysis assay (in vitro toxicity testing). The following applies: summary of Table 6. On the procedure: In addition, in vitro toxicity testing (haemolysis assays) indicates a lack of toxicity at levels well above MIC for some peptides, indicating potential for a wide therapeutic window (Table 6). […] Since increased net charge is known to be associated with higher levels of haemolysis, (Dhople and Nagaraj, Peptides 2005: 26: 217-225), this was not wholly unexpected.
Experiments were conducted to assess the percentage haemolysis against peptide concentration for peptides SEQ ID NOs: 4, 5, 6 and 7 against full length epidermicin (SEQ ID NO:10) and SEQ ID NO:12.

The next series deals with S. aureus 1195. The procedure: (§2) Experiments were conducted in which the full-length epidermicin peptide (51 amino acids, SEQ ID NO:10) was truncated to yield the derivatives shown in FIG. 1 (SEQ ID NOs:11 to 19). NI011-37 (SEQ ID NO:11) Is the region most similar to other peptides in the public domain, NI0138-51 (SEQ ID NO:12) is the region that is most unique with respect to other peptides in the public domain. All other truncations have been carried out by removing residues from the amino-terminal end of the peptide to each lysine residue (K). Lysine is important in antimicrobial peptides as it contributes to the net positive charge, which is thought to have a key role in the mode of action of ‘cationic’ peptides, like NI01 (SEQ ID NO:10).

Another series deals with S. saprophyticus. On the procedure:
as §2

For another series, the system named is S. Hominis. On the procedure:
as §2

A further series relates to VISA. The procedure: as §1
Series [1] deals with Klebsiella (K. pneumoniae). On the procedure: as §1

The values below come from patent US10273272B2, “Antimicrobial peptides” (Amprologix Limited, priority 2014, dated 2019).

In brackets after ≈: the same amount, converted by molar mass. Like-named read-outs stand apart in the source and are kept apart here. Residues, ends and D or L forms follow the SMILES beside them. No end group written: not given here.

In the case of `CC[C@H](C)[C@H](NC(=O)[C@H](CCC(N)=O)NC(=O)[C@H](CCCCN)NC(=O)[C@H](Cc1ccc(O)cc1)NC(=O)[C@@H](NC(=O)[C@H](Cc1c[nH]c2ccccc12)NC(=O)[C@H](CCCCN)NC(=O)[C@H](Cc1ccccc1)NC(=O)[C@H](CO)NC=O)[C@@H](C)CC)C(=O)N[C@@H](CCCCN)C(=O)N[C@@H](CCCCN)C(=O)N[C@@H](CC(C)C)C(=O)N[C@@H](Cc1c[nH]c2ccccc12)C(=O)N[C@@H](C)C(=O)O` [SEQ ID NO:4, formyl-SFKWIYKQIKKLWA] (HELM PEPTIDE1{[O=C[*:2]].S.F.K.W.I.Y.K.Q.I.K.K.L.W.A}$$$$V2.0; C-terminus assumed), the minimal inhibitory concentration (MIC) was determined as 6.7 µg/mL (≈ 3.59 µM) against N. lactamica; 6.7 µg/mL (≈ 3.59 µM) in the series on P. aeruginosa; 2.3 µg/mL (≈ 1.23 µM) against E. coli (E. coli 50, Table 2); 1.3 µg/mL (≈ 0.696 µM) against E. coli (E. coli 178, Table 2); 1.5 µg/mL (≈ 0.803 µM) with E. coli (E. coli DH5α, Table 2); 2 µg/mL (≈ 1.07 µM) against E. coli (E.coli 177, Table 2). The same molecule returned a minimum inhibitory concentration (MIC) with S aureus 1195 of 1.7 µg/mL (≈ 0.91 µM). The “haemolytic activity / toxicity, in words” value in the series with haemolysis is “higher levels of haemolytic activity”.
Take “KGTILKWINAGQSFEWIYKQIKKLWA [SEQ ID NO:17]”: the figures for the MIC against S. aureus 1195, against S. saprophyticus and with S. Hominis were 8 µg/mL, 4 µg/mL and 16 µg/mL, respectively.
On the same counts, the results for “KLIQFLATKGQKYVSLAWKHKGTILKWINAGQSFEWIYKQIKK [SEQ ID NO:13]” are 8 µg/mL, 8 µg/mL and 16 µg/mL.
Take “KYVSLAWKHKGTILKWINAGQSFEWIYKQIKKLWA [SEQ ID NO:15]”: the values for the MIC against S. aureus 1195, with S. saprophyticus and against S. Hominis were 8 µg/mL, 4 µg/mL and 6 µg/mL, respectively.
On to “SFEWIYKQIKKLWAKKK [SEQ ID NO:7, SFEWIYKQIKKLWAKKK]”, for which the MIC with N. lactamica stood at 37.3 µg/mL; in the series on P. aeruginosa it was 8 µg/mL; with E. coli (E. coli 50, Table 2) it was 4.3 µg/mL; against E. coli (E. coli 178, Table 2), 3.3 µg/mL; in the series on E. coli (E. coli DH5α, Table 2), 4 µg/mL; in the series on E. coli (E.coli 177, Table 2) it was 3 µg/mL. Besides, in the series on S aureus 1195, the MIC amounted to 1.7 µg/mL. Also, the “haemolytic activity / toxicity, in words” value in the series on haemolysis is reported as “relatively low levels of haemolysis”.
Consider “SFKWIYKQIKKLWA [SEQ ID NO:5, SFKWIYKQIKKLWA]”, for which the MIC turned out to be 4.7 µg/mL against N. lactamica; 1.3 µg/mL against E. coli (E. coli 50, Table 2); 1.3 µg/mL in the series with E. coli (E. coli 178, Table 2); 2 µg/mL against E. coli (E. coli DH5α, Table 2); 2 µg/mL with E. coli (E.coli 177, Table 2); 1.2 µg/mL in the series with S aureus 1195. The “haemolytic activity / toxicity, in words” value in the series on haemolysis is “higher levels of haemolytic activity”.
Take “SFKWIYKQPKKLWA [SEQ ID NO:21, SFKWIYKQPKKLWA]”: the MIC is greater than 64 µg/mL against P. aeruginosa; 64 µg/mL against E. coli (E. coli 50, Table 2); 64 µg/mL with E. coli (E. coli 178, Table 2); 26.7 µg/mL in the series with E. coli (E. coli DH5α, Table 2); 53.3 µg/mL in the series on E. coli (E.coli 177, Table 2); greater than 64 µg/mL against VISA. In addition, the MIC against S aureus 1195 is 42.7 µg/mL; in [1], greater than 64 µg/mL.
“SFKWIYKQPKKLWAKKK [SEQ ID NO:23, SFKWIYKQPKKLWAKKK]”: the MIC against P. aeruginosa was greater than 64 µg/mL; with E. coli (E. coli 50, Table 2) it was 18.7 µg/mL; with E. coli (E. coli 178, Table 2), 26.7 µg/mL; in the series on E. coli (E. coli DH5α, Table 2), 13.3 µg/mL; against E. coli (E.coli 177, Table 2) it was 16 µg/mL; with VISA, greater than 64 µg/mL. Moreover, the minimal inhibitory concentration (MIC) was 8 µg/mL against S aureus 1195 and greater than 64 µg/mL in series [1].
Take “SFKWPYKQIKKLWA [SEQ ID NO:22, SFKWPYKQIKKLWA]”: the MIC against P. aeruginosa was 64 µg/mL; with E. coli (E. coli 178, Table 2) it was 32 µg/mL; in the series with E. coli (E. coli DH5α, Table 2), 10.7 µg/mL; against E. coli (E.coli 177, Table 2), 13.3 µg/mL; with VISA, greater than 64 µg/mL; in the series on S aureus 1195 it was 16 µg/mL.
